Laboratory results taken from patent US4880924A, “Novel compounds and use thereof in selective cyclization process” (Nelson Research & Development Co., priority 1986, dated 1989).

Experiments:
GABA receptor sites = assay: displacement of 3H-muscimol from specific GABA receptor sites in mouse brain membranes; settings: read-out: Concentration of the test compound showing 50% inhibition of labelled ligand binding
Protocol: (§1) The novel compound prepared above was investigated for its potency in interaction with GABA receptor sites in BRAIN. As described in detail in Roberts et. al. J. Neuroscience, Vol. 1, No. 2, pp. 132-140 (1981), two experiments were performed: (1) the potency of the compound in displacing ^3 H-muscimol, a known GABA agonist, from specific GABA receptor sites in mouse brain membranes, and (2) the potency in displacing ^3 H-GABA from sodium-dependent GABA binding sites in mouse brain membranes, which reflects potency for the GABA reuptake inactivation process. […] This reflects very good potency for the compound prepared in Example 4.

[1] = target: T1, sodium-dependent GABA binding sites (Mus musculus); assay: displacement of 3H-GABA from sodium-dependent GABA binding sites in mouse brain membranes (GABA reuptake inactivation process); settings: read-out: Concentration of the test compound showing 50% inhibition of labelled ligand binding
T1 construct: from tissue; host or cells: mouse brain membranes
Protocol: as §1

`NCCC(C(=O)O)C1COC(=O)C1` (stereo not drawn) [Example 4, α-(2-aminoethyl)tetrahydro-5-oxo-3-furan acetic acid] gave an IC50 (GABA receptor sites) of 2.1 µM and an IC50 [1] of 25 µM.
